Experimental data taken from paper PMC7215714.

Tests used:
C2C12 cells = test system: C2C12 cells; parameters: method as in PMID 30925718; conditions: C2C12 mouse skeletal muscle cell line; cited from earlier work
SH-SY5Y cells = test system: SH-SY5Y cells; parameters: method as in PMID 32295288; conditions: cited from earlier work
[1] = test system: caspases 3 and 9 in SH-SY5Y cells; experiment: Western blotting of cleaved caspase 3 and 9; assay type: cell-based, human; conditions: 2000 µM, 6 h, both differentiated and undifferentiated SH-SY5Y cells
Method: Amiodarone 50 μM and MDMA 1000 μM were used as negative controls. After treatment, cells were washed twice with cold PBS buffer (pH 7.4) and incubated with 70 μL of cell lysis buffer (radioimmunoprecipitation assay (RIPA) buffer supplemented with complete protease inhibitor (Roche Diagnostics, Mannheim, Germany)) for 15 min on ice. Then, the cell lysates were collected into Eppendorf tubes and centrifuged at 1600 g for 20 min. […] The protein extracts (18 μg per lane) were loaded, separated by SDS/PAGE using 4–12% NuPAGE Bis-Tris gels (Invitrogen, Basel, Switzerland), and then transferred to nitrocellulose membranes by the Trans-Blot Turbo Blotting System (Bio-Rad, Cressier, Switzerland). […] Protein expression was quantified using the Fusion Pulse TS device (Vilber Lourmat, Oberschwaben, Germany).

[2] = cited from earlier work
[3] = test system: mitochondria obtained from the hippocampus, cortex, and cerebellum of rats; conditions: cited from earlier work

SMILES: CCCC(C(=O)c1ccccc1)N1CCCC1 (stereo not drawn) [α-PVP, α-pyrrolidinopentiophenone]
- Electron transport chain complexes with reduced activity (C2C12 cells): complex I

SMILES: CNC(C)C(=O)c1ccc(Cl)cc1 (stereo not shown) [4-CMC, 4-chloromethcathinone]
- Effect on autophagy (SH-SY5Y cells): stimulates autophagy
- Expression of cleaved caspase 9 [1]: increased the expression of cleaved caspase 9

SMILES: CC(N)Cc1ccccc1 (stereo not shown) [amphetamine, Amphetamine]
- Plasma concentrations reached after a pharmacological dose [2]: low micromolar range

SMILES: CNC(C)C(=O)c1ccc(C)cc1 (stereo not shown) [4-MMC, 4-methylmethcathinone]
- Effect on mitochondrial ROS levels and outer mitochondrial membrane [3]: increases mitochondrial ROS levels and damages the outer mitochondrial membrane

SMILES: CCCC(C(=O)c1ccc2ccccc2c1)N1CCCC1 (stereo not shown) [naphyrone]
- Electron transport chain complexes with reduced activity (C2C12 cells): complex II

SMILES: CNC(C)Cc1ccc2c(c1)OCO2 (stereo not shown) [MDMA, 3,4-methylenedioxymethamphetamine]
- Electron transport chain complexes with reduced activity (C2C12 cells): reduced the activity of complexes I and III
